Measurements: ChEMBL document CHEMBL1136132, “Effect of structural modification on the inhibitory selectivity of rutaecarpine derivatives on human CYP1A1, CYP1A2, and CYP1B1” (Bioorg Med Chem Lett, 2003)

Columns and labels:
[1] = Ratio for inhibition of Cytochrome P450 1B1 to that of Cytochrome P450 1A2; format: ADME
[2] = Ratio for inhibition of Cytochrome P450 1A1 to that of Cytochrome P450 1A2; format: ADME
Cytochrome P450 1A2 = target: T1, Cytochrome P450 1A2 (Homo sapiens, UniProt P05177); test: Inhibition of Cytochrome P450 1A2 enzyme in bacterial membrane expressing human P450s; format: ADME, cell membranes
T1 sequence (P05177 whole entry): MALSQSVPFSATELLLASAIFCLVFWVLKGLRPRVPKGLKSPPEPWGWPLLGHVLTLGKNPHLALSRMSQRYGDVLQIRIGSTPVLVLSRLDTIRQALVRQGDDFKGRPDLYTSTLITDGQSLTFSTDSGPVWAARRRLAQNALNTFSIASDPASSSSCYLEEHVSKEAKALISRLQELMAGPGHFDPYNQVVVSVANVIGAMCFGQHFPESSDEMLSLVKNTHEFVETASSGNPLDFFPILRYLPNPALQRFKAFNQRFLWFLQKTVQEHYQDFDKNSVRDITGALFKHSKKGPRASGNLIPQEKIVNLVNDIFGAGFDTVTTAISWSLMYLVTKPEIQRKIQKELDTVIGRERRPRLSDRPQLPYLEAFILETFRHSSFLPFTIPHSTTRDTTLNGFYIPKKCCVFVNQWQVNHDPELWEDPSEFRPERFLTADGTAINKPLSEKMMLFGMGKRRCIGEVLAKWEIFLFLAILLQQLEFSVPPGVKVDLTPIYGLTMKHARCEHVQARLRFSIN

Cytochrome P450 1B1 [3] = target: T2, Cytochrome P450 1B1 (Homo sapiens, UniProt Q16678); test: Inhibition of Cytochrome P450 1B1 enzyme in bacterial membrane expressing human P450s; format: ADME, cell membranes
T2 sequence (Q16678 whole entry): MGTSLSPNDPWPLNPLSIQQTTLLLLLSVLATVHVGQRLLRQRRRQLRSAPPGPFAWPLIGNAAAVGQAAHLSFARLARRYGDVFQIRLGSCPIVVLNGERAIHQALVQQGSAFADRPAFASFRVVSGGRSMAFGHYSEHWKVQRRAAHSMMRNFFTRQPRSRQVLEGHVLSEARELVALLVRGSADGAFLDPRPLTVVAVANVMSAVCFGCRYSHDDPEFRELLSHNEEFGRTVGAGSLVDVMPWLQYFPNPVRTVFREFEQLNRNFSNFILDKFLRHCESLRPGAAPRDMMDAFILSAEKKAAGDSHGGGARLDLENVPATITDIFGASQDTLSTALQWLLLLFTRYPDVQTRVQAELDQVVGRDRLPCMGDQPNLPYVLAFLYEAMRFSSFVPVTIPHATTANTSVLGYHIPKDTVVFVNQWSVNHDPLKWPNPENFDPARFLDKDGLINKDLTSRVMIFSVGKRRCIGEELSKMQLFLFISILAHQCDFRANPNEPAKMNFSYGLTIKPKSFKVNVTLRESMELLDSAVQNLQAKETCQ

Cytochrome P450 1A1 = target: T3, Cytochrome P450 1A1 (Homo sapiens, UniProt P04798); test: Inhibition of Cytochrome P450 1A1 enzyme in bacterial membrane expressing human P450s; format: ADME, cell membranes
T3 sequence (P04798 whole entry): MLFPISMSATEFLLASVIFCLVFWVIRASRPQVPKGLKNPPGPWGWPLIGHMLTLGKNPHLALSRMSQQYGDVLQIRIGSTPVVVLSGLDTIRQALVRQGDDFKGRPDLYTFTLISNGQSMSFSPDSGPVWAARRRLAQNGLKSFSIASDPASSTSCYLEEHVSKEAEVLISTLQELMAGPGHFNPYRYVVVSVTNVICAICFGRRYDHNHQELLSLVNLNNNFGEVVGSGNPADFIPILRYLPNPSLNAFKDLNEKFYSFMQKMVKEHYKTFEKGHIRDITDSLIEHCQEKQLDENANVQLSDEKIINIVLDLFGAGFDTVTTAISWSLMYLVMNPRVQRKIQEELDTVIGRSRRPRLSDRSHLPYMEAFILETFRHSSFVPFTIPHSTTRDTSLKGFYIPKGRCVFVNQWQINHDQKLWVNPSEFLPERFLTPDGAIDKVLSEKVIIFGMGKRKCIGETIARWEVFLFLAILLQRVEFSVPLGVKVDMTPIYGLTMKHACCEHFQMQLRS

Cytochrome P450 1B1 [4] = target: T2, Cytochrome P450 1B1; test: Inhibition of human Cytochrome P450 1B1 expressed in bacterial membrane; format: ADME, cell membranes

Compound	ratio [1]	ratio [2]	IC50 (Cytochrome P450 1A2)	IC50 (Cytochrome P450 1B1 [3])	IC50 (Cytochrome P450 1A1)	IC50 (Cytochrome P450 1B1 [4])
CN1c2ccccc2C(=O)N2CCc3c([nH]c4ccccc34)[C@@H]21 [EVODIAMINE]	0.04	2				
O=c1c2cc(Br)ccc2nc2n1CCc1c-2[nH]c2ccccc12	0.8	16	1500 nM	120 nM	2470 nM	
COc1ccc2c(=O)n3c(nc2c1OC)-c1[nH]c2ccccc2c1CC3	8	33	29 nM	2400 nM	970 nM	
O=c1c2ccccc2nc2n1CCc1c-2[nH]c2ccccc12 [RUTAECARPINE]	3	13	22 nM	55 nM	260 nM	
COc1ccc2nc3n(c(=O)c2c1OC)CCc1c-3[nH]c2ccccc12	0.08	0.5	1730 nM	140 nM	870 nM	
COc1ccc2nc3n(c(=O)c2c1)CCc1c-3[nH]c2ccccc12	0.5	5	280 nM	140 nM	1280 nM	
CN1c2ccccc2C(=O)N2CCc3c([nH]c4ccccc34)[C@H]21 [EVODIAMINE]			16300 nM	690 nM	24600 nM	
Oc1c2ccccc2nc2c3nc4ccccc4c-3ccn12			30 nM			
COc1ccc2[nH]c3c(c2c1)CCn1c-3nc2ccccc2c1=O	0.03	0.6	2920 nM		1780 nM	84 nM
O=c1c2ccc(Cl)cc2nc2n1CCc1c-2[nH]c2ccccc12	1	30	39 nM	37 nM	1200 nM	
C[n+]1c2n(c(=O)c3ccccc31)CCc1c-2[nH]c2ccccc12 [DEHYDROEVODIAMINE]	0.06	3	5630 nM	330 nM	18000 nM	
COc1cc2nc3n(c(=O)c2cc1OC)CCc1c-3[nH]c2ccccc12	< 0.0003	< 0.003	> 500000 nM	160 nM	1580 nM	
O=c1c2cc(Cl)ccc2nc2n1CCc1c-2[nH]c2ccccc12	3	64	29 nM	90 nM	1920 nM	
COc1cc(OC)c2nc3n(c(=O)c2c1)CCc1c-3[nH]c2ccccc12	2	11	41 nM	80 nM	420 nM	
COc1ccc2c3c([nH]c2c1)-c1nc2ccccc2c(=O)n1CC3	0.06	1	1980 nM	110 nM	2000 nM	
COc1cccc2c(=O)n3c(nc12)-c1[nH]c2ccccc2c1CC3	7	45	11 nM	71 nM	450 nM	
COc1ccc2c(=O)n3c(nc2c1)-c1[nH]c2ccccc2c1CC3	2	11	76 nM	170 nM	850 nM	
